In patent US12350256B2, “Histidine and/or histidine derivative for the treatment of inflammatory skin diseases” (Curapel (Scotland) Limited, priority 2008, dated 2025):

Tested on: Adult patients with moderate to severe chronic atopic dermatitis
Assay: Randomised, double-blind, placebo-controlled study of oral L-histidine in atopic dermatitis (SCORAD, POEM, TEWL)
Assay type: in vivo, human
Description: A randomised, double-blind, placebo-controlled study was conducted as follows: Adult (i.e. greater than 18 years of age) patients with moderate to severe chronic atopic dermatitis were recruited to the study from patients and diagnosis of atopic dermatitis confirmed using the UK Working Party's Diagnostic criteria (see Williams et al, Br. J. Dermatol. 1994; 131:383-96). Exclusion criteria were: patients aged less than 18 years, pregnancy or lactation, liver disease, exposure to natural or artificial ultra-violet radiation, immunosuppression due to disease or medication and Chinese herbal medicine in the 3 months preceding the study. Patients were asked to cease potent topical steroid use during the study. Disease severity was quantified by a research nurse using the well established SCORAD system (see Schmitt et al, European Dermato-Epidemiology Network, J. Allergy Clin. Immunol., 2007; 120:1389-98) and self assessed by the patients using POEM (Patient-Oriented Eczema Measure; see […] et al, J. Arch. Dermatol. 2004; 140-1513-9). Skin barrier function was assessed using a Vapometer® which quantifies Trans Epidermal Water Loss (TEWL; see Fluhr et al, Exp. Dermatol., 2006; 15:483-92). Atopic dermatitis patients were randomised into each of 2 groups and after a 'washout' period of 2 weeks and received either 4.0 g of powder L-histidine or 4.0 g of placebo (the naturally occurring food sweetener, erythritol) powder daily for 4 weeks. The patients were instructed to dissolve either the L-histidine or placebo powder in fruit juice. Neither the patient nor the clinical staff was aware of the identity of treatments administered.

[1] = 4.0 g daily oral for 4 weeks, n=4

N[C@@H](Cc1c[nH]cn1)C(=O)O [L-Histidine, 2-amino-3-(3H-imidazol-4-yl)propanoic acid]
POEM % change after 4 wks [1]: −25% | SCORAD % change after 4 wks [1]: −22% | SCORAD after 4 wks [1]: 25 | TEWL % change after 4 wks [1]: −50% | reduction of clinician-scored disease activity (SCORAD) (4 weeks of 4.0 g daily): 22% | reduction of patient-scored disease activity (4 weeks of 4.0 g daily): 25% | reduction of transepidermal water loss (TEWL) (4 weeks of 4.0 g daily): 50% | TEWL after 4 wks (Vapometer, 4.0 g daily oral for 4 weeks, n=4): 8 | SCORAD before (baseline before treatment, 4.0 g daily oral group, n=4): 37 | TEWL before (baseline before treatment, Vapometer, 4.0 g daily oral group, n=4): 16 | POEM before (baseline before treatment, patient self-assessed, 4.0 g daily oral group, n=4): 20 | POEM after 4 wks (patient self-assessed, 4.0 g daily oral for 4 weeks, n=4): 15
